The values that follow are results of earlier work, collected in patent publication US20060160783A1, “Novel omeprazole forms and related methods” (Transform Pharmaceuticals, Inc., priority 2004, published 2006).

The conditions of data set [1]: according to the '188 Patent.
Assay in data set [2]: not given
The source holds these as a separate data set.

In the case of `COc1ccc2[n-]c([S+]([O-])Cc3ncc(C)c(OC)c3C)nc2c1.[Na+]` (centres unmarked) [Omeprazole sodium salt form B], the hygroscopicity entry in data set [1] was “less hygroscopic than omeprazole form A”.

As to `COc1ccc2[nH]c([S+]([O-])Cc3ncc(C)c(OC)c3C)nc2c1` (centres unmarked) [Omeprazole, 5-methoxy-2-[[(4-methoxy-3,5-dimethyl-2-pyridinyl)methyl]sulfinyl]-1H-benzimidazole], the “stability in acidic aqueous solutions” value is “degrades very rapidly”. Besides, the “solubility in alkaline solutions” value in data set [2] (alkaline solutions, as a negatively charged ion) is recorded as “very soluble”. In data set [2] (water), the solubility in water entry is “only slightly soluble”.

As to `COc1ccc2[n-]c([S+]([O-])Cc3ncc(C)c(OC)c3C)nc2c1.[Na+]` (centres unmarked) [omeprazole sodium form A], the hygroscopicity result in data set [1] was “very hygroscopic”.
